Data published in patent US7186743B2, “Substituted pyrazolyl compounds for the treatment of inflammation” (Pharmacia Corporation, priority 2001, dated 2007).
Where a name gives a salt, the structure may show the parent alone. Read-outs that look alike come from different tables or passages of the source.

Legend:
IKK2 = target: T1, IKK2 (Homo sapiens, UniProt O14920); assay: IKKβ Resin Enzyme Assay (IKK2 resin); type: biochemical
T1 construct: made in house; host or cells: insect cells (baculovirus, pFastBac; SF9)
T1 sequence (O14920 1-756): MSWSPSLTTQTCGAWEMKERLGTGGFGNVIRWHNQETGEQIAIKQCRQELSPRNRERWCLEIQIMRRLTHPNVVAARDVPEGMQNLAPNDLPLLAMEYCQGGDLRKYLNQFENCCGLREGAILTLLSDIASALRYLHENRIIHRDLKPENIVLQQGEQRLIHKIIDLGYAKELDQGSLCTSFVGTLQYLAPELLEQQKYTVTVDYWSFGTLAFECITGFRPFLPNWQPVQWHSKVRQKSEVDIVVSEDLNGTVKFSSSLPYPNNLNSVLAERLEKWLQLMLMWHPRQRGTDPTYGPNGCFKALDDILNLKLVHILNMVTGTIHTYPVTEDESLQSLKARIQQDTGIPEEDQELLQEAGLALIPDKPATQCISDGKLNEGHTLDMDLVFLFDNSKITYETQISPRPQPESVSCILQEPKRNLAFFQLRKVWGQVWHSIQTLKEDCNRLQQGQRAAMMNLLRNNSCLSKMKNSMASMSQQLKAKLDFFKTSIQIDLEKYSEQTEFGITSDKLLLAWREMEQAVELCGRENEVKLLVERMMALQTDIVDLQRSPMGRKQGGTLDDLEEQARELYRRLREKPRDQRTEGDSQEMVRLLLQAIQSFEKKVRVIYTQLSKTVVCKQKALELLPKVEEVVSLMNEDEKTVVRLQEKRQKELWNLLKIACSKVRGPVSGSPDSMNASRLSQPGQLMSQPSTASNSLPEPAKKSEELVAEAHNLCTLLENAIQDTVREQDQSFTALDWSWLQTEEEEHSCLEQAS
Procedure, shortened: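 Radiometric test: [γ-33P]ATP incorporation into a biotinylated IκBα peptide, 30 min at 25° C, pH 7.6 Hepes with MgCl2/MnCl2 and 1 μM cold ATP. Reaction is quenched with Dowex resin and the supernatant is counted. Kinase is FLAG-purified homodimeric recombinant human IKK2 from insect cells.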

[1] = Table 11, read-out: IKK2 Resin IC50
[2] = Table 3, read-out: IKK Resin IC50
[3] = Table 4, read-out: IKK2 Resin IC50
[4] = Table 15, read-out: IKK2 Resin IC50
[5] = Table 2, read-out: IKK Resin IC50
[6] = Table 14, read-out: IKK2 Resin IC50

In the case of `COc1ccc(CNc2ncccc2C(=O)Nc2ccc3c(c2)-c2c(c(C(N)=O)nn2-c2ccc4c(c2)OCO4)CC3)cc1` [Example 209, 1-(1,3-benzodioxol-5-yl)-8-[({2-[(4-methoxybenzyl)amino]pyridin-3-yl}carbonyl)amino]-4,5-dihydro-1H-benzo[g]indazole-3-carboxamide], the melting point is reported as 181 to 182 °C.
Work on `NC(=O)c1nn(-c2ccc3c(c2)OCO3)c2c1CCc1ccc(NC(=O)c3cccnc3N)cc1-2` [Example 210, 8-{[(2-aminopyridin-3-yl)carbonyl]amino}-1-(1,3-benzodioxol-5-yl)-4,5-dihydro-1H-benzo[g]indazole-3-carboxamide] yielded a melting point of 265 to 267 °C.
For `NC(=O)/C=C/c1ccc(-n2nc(C(N)=O)c3c2-c2cc(NC(=O)c4ccccc4Cl)ccc2CC3)cc1` [Example 292, 1-{4-[(1E)-3-amino-3-oxoprop-1-enyl]phenyl}-8-[(2-chlorobenzoyl)amino]-4,5-dihydro-1H-benzo[g]indazole-3-carboxamide], the IC50 (IKK2; [1]) was at most 1 µM.
`CC1(C)Cc2c(C(N)=O)nn(-c3ccc4c(c3)OCO4)c2-c2cc(NC(=O)c3ccncc3Cl)ccc21` [Example 435, 1-(1,3-benzodioxol-5-yl)-8-[(3-chloroisonicotinoyl)amino]-5,5-dimethyl-4,5-dihydro-1H-benzo[g]indazole-3-carboxamide] showed an IC50 (IKK2; Table 22, read-out: IKK2 Resin IC50) of at most 1 µM.
Work on `CS(=O)(=O)c1ccc(-n2nc(C(N)=O)c3c2-c2cc(NC(=O)c4cc(SC#N)ccc4[N+](=O)[O-])ccc2CC3)cc1` [Example 148, 3-[({3-(aminocarbonyl)-1-[4-(methylsulfonyl)phenyl]-4,5-dihydro-1H-benzo[g]indazol-8-yl}amino)carbonyl]-4-nitrophenylthiocyanate] yielded an IC50 (IKK2; [2]) of at most 1 µM.
`NC(=O)c1nn(-c2ccc3c(c2)OCO3)c2c1CCc1ccc(NC(=O)c3ccc(F)cc3Cl)cc1-2` [Example 164, 1-(1,3-benzodioxol-5-yl)-8-[(2-chloro-4-fluorobenzoyl)amino]-4,5-dihydro-1H-benzo[g]indazole-3-carboxamide] gave an IC50 (IKK2; [3]) of at most 1 µM.
Compound `CS(=O)(=O)c1ccc(-n2nc(C(N)=O)c3c2-c2cc(NC(=O)c4c(F)cccc4Cl)ccc2CC3)cc1` [Example 134, 8-[(2-chloro-6-fluorobenzoyl)amino]-1-[4-(methylsulfonyl)phenyl]-4,5-dihydro-1H-benzo[g]indazole-3-carboxamide] has an IC50 (IKK2; [2]) of at most 1 µM.
`COCC(=O)Nc1ccc(-n2nc(C(N)=O)c3c2-c2cc(NC(=O)c4ccccc4Cl)ccc2CC3)cc1` [Example 374, 8-[(2-chlorobenzoyl)amino]-1-{4-[(methoxyacetyl)amino]phenyl}-4,5-dihydro-1H-benzo[g]indazole-3-carboxamide] showed an IC50 (IKK2; [4]) of at most 1 µM.
For `NCCCS(=O)(=O)c1ccc(-n2nc(C(N)=O)c3c2-c2cc(NC(=O)c4ccccc4Cl)ccc2CC3)cc1` [Example 404, 1-{4-[(3-aminopropyl)sulfonyl]phenyl}-8-[(2-chlorobenzoyl)amino]-4,5-dihydro-1H-benzo[g]indazole-3-carboxamide hydrochloride], the IC50 (IKK2; Table 18, read-out: IKK2 Resin IC50) was at most 1 µM.
In the case of `Cc1ncccc1C(=O)Nc1ccc2c(c1)-c1c(c(C(N)=O)nn1-c1ccc(S(C)(=O)=O)cc1)CC2` [Example 100], the IC50 (IKK2; [5]) is reported as at most 1 µM.
Work on `NC(=O)c1nn(-c2ccc(F)cc2)c2c1CCc1ccc(NC(=O)c3ccccc3Cl)cc1-2` [Example 230, 8-[(2-chlorobenzoyl)amino]-1-(4-fluorophenyl)-4,5-dihydro-1H-benzo[g]indazole-3-carboxamide] yielded an IC50 (IKK2; Table 6, read-out: IKK2 Resin IC 50) of at most 1 µM.
For `NC(=O)c1nn(-c2cccc(F)c2)c2c1CCc1ccc(NC(=O)c3cccnc3Cl)cc1-2` [Example 345, 8-{[(2-chloropyridin-3-yl)carbonyl]amino}-1-(3-fluorophenyl)-4,5-dihydro-1H-benzo[g]indazole-3-carboxamide], the IC50 (IKK2; [6]) was at most 1 µM.
Work on `CS(=O)(=O)c1ccc(C(=O)Nc2ccc3c(c2)-c2c(c(C(N)=O)nn2-c2ccc4c(c2)OCO4)CC3)c(Cl)c1` [Example 163, 1-(1,3-benzodioxol-5-yl)-8-{[2-chloro-4-(methylsulfonyl)benzoyl]amino}-4,5-dihydro-1H-benzo[g]indazole-3-carboxamide] yielded an IC50 (IKK2; [3]) of at most 1 µM.
In the case of `NC(=O)c1nn(-c2ccc(/C=C/C(=O)O)cc2)c2c1CCc1ccc(NC(=O)c3ccccc3Cl)cc1-2` [Example 291, (2E)-3-(4-{3-(aminocarbonyl)-8-[(2-chlorobenzoyl)amino]-4,5-dihydro-1H-benzo[g]indazol-1-yl}phenyl)prop-2-enoic acid], the IC50 (IKK2; [1]) is reported as at most 1 µM.
`CS(=O)(=O)c1ccc(-n2nc(C(N)=O)c3c2-c2cc(NC(=O)c4ccccc4Cl)ccc2CC3)nc1` [Example 367, 8-[(2-chlorobenzoyl)amino]-1-[5-(methylsulfonyl)pyridin-2-yl]-4,5-dihydro-1H-benzo[g]indazole-3-carboxamide] showed an IC50 (IKK2; read-out: IKK-2 resin IC50) of at most 1 µM.
`CS(=O)(=O)Nc1ccc(-n2nc(C(N)=O)c3c2-c2cc(NC(=O)c4ccccc4Cl)ccc2CC3)cc1` [Example 372, 8-[(2-chlorobenzoyl)amino]-1-{4-[(methylsulfonyl)amino]phenyl}-4,5-dihydro-1H-benzo[g]indazole-3-carboxamide] showed an IC50 (IKK2; [4]) of at most 1 µM.
`CS(=O)(=O)c1ccc(-n2nc(C(N)=O)c3c2-c2cc(NC(=O)c4ccccc4C(F)(F)F)ccc2CC3)cc1` [Example 93, 1-[4-(methylsulfonyl)phenyl]-8-{[2-(trifluoromethyl)benzoyl]amino}-4,5-dihydro-1H-benzo[g]indazole-3-carboxamide] gave an IC50 (IKK2; [5]) of at most 1 µM.
With `CSc1ccc(-n2nc(C(N)=O)c3c2-c2cc(NS(C)(=O)=O)ccc2CC3)cc1` [Example 411, 8-[(methylsulfonyl)amino]-1-[4-(methylthio)phenyl]-4,5-dihydro-1H-benzo[g]indazole-3-carboxamide] the IC50 (IKK2; Table 19, read-out: IKK2 Resin IC50) was at most 1 µM.
In the case of `CS(=O)(=O)c1ccc(-n2nc(C(N)=O)c3c2-c2cc(NC(=O)c4cccc(F)c4F)ccc2CC3)cc1` [Example 101, 8-[(2,3-difluorobenzoyl)amino]-1-[4-(methylsulfonyl)phenyl]-4,5-dihydro-1H-benzo[g]mdazole-3-carboxamide], the IC50 (IKK2; [5]) is reported as at most 1 µM.
`NC(=O)c1nn(-c2cccc(O)c2)c2c1CCc1ccc(NC(=O)c3ccncc3Cl)cc1-2` [Example 281, 8-[(3-chloroisonicotnoyl)amino]-1-(3-hydroxyphenyl)-4,5-dihydro-1H-benzo[g]indazole-3-carboxamide] showed an IC50 (IKK2; Table 10, read-out: IKK2 Resin IC50) of at most 1 µM.
Compound `NC(=O)c1nn(-c2cccc(F)c2)c2c1CCc1ccc(NC(=O)c3ccccc3Cl)cc1-2` [Example 339, 8-[(2-chlorobenzoyl)amino]-1-(3-fluorophenyl)-4,5-dihydro-1H-benzo[g]indazole-3-carboxamide] has an IC50 (IKK2; [6]) of at most 1 µM.
Compound `CN1CCN(c2ccc(Cl)c(C(=O)Nc3ccc4c(c3)-c3c(c(C(N)=O)nn3-c3ccc5c(c3)OCO5)CC4)n2)CC1` [Example 217, 1-(1,3-benzodioxol-5-yl)-8-({[3-chloro-6-(4-methylpiperazin-1-yl)pyridin-2-yl]carbonyl}amino)-4,5-dihydro-1H-benzo[g]indazole-3-carboxamide] has an IC50 (IKK2; Table 5, read-out: IKK2 Resin Avg. IC50) of at most 1 µM.
Compound `COc1ccc(C(=O)Nc2ccc3c(c2)-c2c(c(C(N)=O)nn2-c2ccc4c(c2)OCO4)CC3)c(Cl)c1` [Example 182, 1-(1,3-benzodioxol-5-yl)-8-[(2-chloro-4-methoxybenzoyl)amino]-4,5-dihydro-1H-benzo[g]indazole-3-carboxamide] has an IC50 (IKK2; [3]) of at most 1 µM.
